# Measured values as given in patent publication US11548868B2, “Heterocyclic compounds, compositions comprising heterocyclic compound, and methods of use thereof” (JS INNOPHARM (SHANGHAI) LTD, priority 2017, dated 2023).
# What was measured:
# [1] = target: T1, IDO1 in Hela cancer cells (Homo sapiens, UniProt P14902); assay: IDO1 Cellular Assay (kynurenine production in IFN-γ stimulated Hela cancer cells); format: cell-based; conditions: human IFN-γ 50 ng/mL, 48 hours incubation, kynurenine at 490 nm
# T1 construct: endogenous in cells; host or cells: Hela cancer cells stimulated with human IFN-γ
# T1 sequence (P14902 whole entry): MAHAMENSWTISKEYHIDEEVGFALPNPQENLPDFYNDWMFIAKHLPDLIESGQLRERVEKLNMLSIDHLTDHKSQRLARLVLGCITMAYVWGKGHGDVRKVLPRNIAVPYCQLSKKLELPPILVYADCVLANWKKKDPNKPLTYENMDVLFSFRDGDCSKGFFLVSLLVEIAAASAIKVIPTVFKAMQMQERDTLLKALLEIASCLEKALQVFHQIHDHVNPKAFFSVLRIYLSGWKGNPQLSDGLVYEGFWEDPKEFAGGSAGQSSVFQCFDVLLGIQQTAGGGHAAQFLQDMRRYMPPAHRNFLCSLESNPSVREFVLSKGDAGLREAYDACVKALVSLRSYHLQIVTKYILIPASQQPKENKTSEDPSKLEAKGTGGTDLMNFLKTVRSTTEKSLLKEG
# Description: Hela cancer cells (5×10^3 per well) with 85 μL DMEM medium containing 10% FBS were seeded in a 96-well plate and incubated at 95% humidity and 5% CO2 at 37° C. for 24 hours. human IFN-γ (10 μL, 50 ng/mL final concentration) and 5 μL serial dilutions of the test compounds were added into each well. The test compounds were dissolved in DMSO, and successively diluted with pH7.5 buffer (with final DMSO concentration of 0.25%) resulting in final concentrations of the test compounds ranging from 0 to 25 μM (0, 2.5, 7.5, 25, 75, 250, 750, 2500, 7500, & 25000 nM). After 48 hours of incubation, 70 uL of the supernatant per well was transferred to a new 96 well plate. Trichloroacetic acid (6.1 N, 8 μL) was mixed into each well and incubated at 50° C. for 30 min to hydrolyze N-formylkynurenine produced by IDO to kynurenine. The reaction mixture was then centrifuged for 10 min at 2500 RPM to remove sediments. 50 μL of the supernatant per well was transferred to another 96 well plate and mixed with 50 uL of 2% (w/v) p-dimethylaminobenzaldehyde in acetic acid. The yellow color derived from kynurenine was measured at 490 nm using a microplate reader. Percent inhibition of the test compounds was determined by measuring the decrease in kynurenine as compared to the control of DMSO vehicle, which was calculated by formula of (WC-WT)/WC, where WC is the mean absorbance of the control well minus blank well; WT is the mean absorbance of the test well minus the blank well. Data was analyzed by GraphPad Prism 5 and the IC50 values were obtained by non-linear regression.
# The IC50 values of for Compounds disclosed are listed in Table 2, A′: ≤0.5 μM; B′: >0.5 μM and ≤1 μM; C′: >1.0 μM and ≤5 uM; and D′: >5 μM.
# [2] = target: T2, TDO2 in A172 cancer cells (Homo sapiens, UniProt P48775); assay: TDO2 Cellular Assay (kynurenine production in A172 cancer cells); format: cell-based; conditions: L-Trp 1 mM, 24 hours incubation, kynurenine at 490 nm
# T2 construct: endogenous in cells; host or cells: A172 cancer cells
# T2 sequence (P48775 whole entry): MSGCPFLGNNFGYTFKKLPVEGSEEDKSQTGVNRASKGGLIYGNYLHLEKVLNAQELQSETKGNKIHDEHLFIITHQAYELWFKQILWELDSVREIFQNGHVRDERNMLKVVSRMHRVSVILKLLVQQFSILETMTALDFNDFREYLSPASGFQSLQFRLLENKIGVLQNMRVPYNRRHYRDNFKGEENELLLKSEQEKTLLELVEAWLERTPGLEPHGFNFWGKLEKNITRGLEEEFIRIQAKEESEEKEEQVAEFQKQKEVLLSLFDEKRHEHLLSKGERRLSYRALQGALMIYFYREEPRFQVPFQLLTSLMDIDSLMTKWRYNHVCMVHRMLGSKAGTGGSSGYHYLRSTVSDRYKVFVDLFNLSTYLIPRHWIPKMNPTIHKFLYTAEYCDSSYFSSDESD
# How it was run: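 A172 cells seeded overnight, then given 1 mM L-Trp and test compound (0–25 μM, 0.25% DMSO) for 24 h at 37 °C. Supernatant treated with TCA at 50 °C to convert N-formylkynurenine, kynurenine detected with p-dimethylaminobenzaldehyde at 490 nm; IC50 by non-linear regression of inhibition versus DMSO control.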
Structure (SMILES),IC50 [1] [µM],IC50 [2] [µM]
"CS(=O)(=O)N[C@H]1[C@@H]2C[C@@](O)(c3cc(C(F)(F)F)cc4[nH]ncc34)C[C@@H]21 [Example 10, N-((1R,3r,5S,6r)-3-hydroxy-3-(6-(trifluoromethyl)-1H-indazol-4-yl)bicyclo[3.1.0]hexan-6-yl)methanesulfonamide]",1 to 5,≤ 0.5
"N#Cc1ccc(C(=O)N2C[C@@H]3C[C@@](O)(c4cc(Cl)cc5[nH]ncc45)C[C@@H]3C2)cc1 [Example 42, 4-((3aR,5r,6aS)-5-(6-chloro-1H-indazol-4-yl)-5-hydroxyoctahydrocyclopenta[c]pyrrole-2-carbonyl)benzonitrile]",1 to 5,≤ 0.5
"CC(=O)N1C[C@@H]2C[C@@](O)(c3c(Cl)ccc4cncn34)C[C@@H]2C1 [Example 7, 1-((3aR,5r,6aS)-5-(6-chloroimidazo[1,5-a]pyridin-5-yl)-5-hydroxyhexahydrocyclopenta[c]pyrrol-2(1H)-yl)ethanone]",> 5,> 5
"CNC(=O)N[C@H]1[C@@H]2C[C@@](O)(c3cc(Cl)cc4[nH]ncc34)C[C@@H]21 [Example 114, 1-((1R,3r,5S,6r)-3-(6-chloro-1H-indazol-4-yl)-3-hydroxybicyclo[3.1.0]hexan-6-yl)-3-methylurea]",> 5,≤ 0.5
"CS(=O)(=O)N1C[C@@H]2C[C@@](O)(c3cc(Cl)cn4cncc34)C[C@@H]2C1 [Example 52, (3aR,5r,6aS)-5-(6-chloroimidazo[1,5-a]pyridin-8-yl)-2-(methylsulfonyl)octahydrocyclopenta[c]pyrrol-5-ol]",1 to 5,≤ 0.5
"O=C(c1ccccc1)N1C[C@@H]2C[C@@](O)(c3cc(Cl)cc4[nH]ncc34)C[C@@H]2C1 [Example 36, ((3aR,5r,6aS)-5-(6-chloro-1H-indazol-4-yl)-5-hydroxyhexahydrocyclopenta[c]pyrrol-2(1H)-yl)(phenyl)methanone]",> 5,≤ 0.5
"O=C(N[C@H]1[C@@H]2C[C@@](O)(c3cc(Cl)cc4[nH]ncc34)C[C@@H]21)c1cnoc1 [Example 158, N-((1R,3r,5S,6r)-3-(6-chloro-1H-indazol-4-yl)-3-hydroxybicyclo[3.1.0]hexan-6-yl)isoxazole-4-carboxamide]",> 5,1 to 5

# Next, values leading:
IC50 [1] [µM],IC50 [2] [µM],Structure (SMILES)
≤ 0.5,≤ 0.5,"CNS(=O)(=O)N[C@H]1[C@@H]2C[C@@](O)(c3cc(C(F)(F)F)cc4[nH]ncc34)C[C@@H]21 [Example 162, N′-methyl-N-((1R,3r,5S,6r)-3-hydroxy-3-(6-(trifluoromethyl)-1H-indazol-4-yl)bicyclo[3.1.0]hexan-6-yl)sulfuric diamide]"
1 to 5,1 to 5,"CS(=O)(=O)N1C[C@@H]2C[C@@](O)(c3cc(Cl)cc4cn[nH]c34)C[C@@H]2C1 [Example 96, (3aR,5r,6aS)-5-(5-chloro-1H-indazol-7-yl)-2-(methylsulfonyl)octahydrocyclopenta[c]pyrrol-5-ol]"
≤ 0.5,≤ 0.5,"O=C(Cc1ccc(Cl)cc1)N[C@H]1[C@@H]2C[C@@](O)(c3cc(Cl)cc4[nH]ncc34)C[C@@H]21 [Example 149, N-((1R,3r,5S,6r)-3-(6-chloro-1H-indazol-4-yl)-3-hydroxybicyclo[3.1.0]hexan-6-yl)-2-(4-chlorophenyl)acetamide]"
0.5 to 1,≤ 0.5,"O=C(N[C@H]1C[C@@H]2C[C@@](O)(c3cc(Cl)cc4[nH]ncc34)C[C@@H]2C1)c1cccc(Cl)c1 [Example 166, 3-chloro-N-((2r,3aR,5r,6aS)-5-(6-chloro-1H-indazol-4-yl)-5-hydroxyoctahydropentalen-2-yl)benzamide]"
≤ 0.5,≤ 0.5,"O=C(N[C@H]1[C@@H]2C[C@@](O)(c3cc(Cl)cc4[nH]ncc34)C[C@@H]21)c1cccc(Cl)c1 [Example 124, 3-chloro-N-((1R,3r,5S,6r)-3-(6-chloro-1H-indazol-4-yl)-3-hydroxybicyclo[3.1.0]hexan-6-yl)benzamide]"
